Data from patent publication US8637510B2, “Morpholinothiazoles as alpha 7 positive allosteric modulators” (Janssen Pharmaceutica NV, priority 2009, dated 2014).

Legend:
human alpha 7-wt nAChR = molecular target: T1, human alpha 7-wt nAChR (Homo sapiens, UniProt P36544); assay: Ca2+ flux imaging (FDSS) (Protocol B); assay type: cell-based; details: for Emax: efficacy of 100 μM choline defined as 100% in the absence of a PAM, read-out: a7-PAM-G_[33]_Eff_Curve_FI % Efficacy; for EC50: potentiation of 100 μM choline, compounds 0.01 μM to 30 μM, read-out: a7-PAM-G_[33]_pEC50 pEC50 (converted)
T1 construct: expressed in transfected cells
Procedure, shortened: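 Fluo-4AM-loaded cells expressing human α7-wt nAChR, in HBSS with 10 mM HEPES, 5 mM CaCl2, 0.1% BSA, received compound (0.01–30 μM), typically 10 min before 100 μM choline, with calcium flux read in real time. Potentiation is relative to choline alone (100%); EC50 from sigmoidal curves.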

[1] = molecular target: T2, human alpha 7-wt nAChR-expressing GH4C1 cells (Homo sapiens, UniProt P36544); assay: Patch-clamp current recording (whole-cell voltage-clamp, PAM type classification); assay type: cell-based; parameters: key: Type 0 compounds minimally change the effect size of the current elicited by 1 mM choline.; Type 1 compounds enhance the effect size of the current elicited by 1 mM choline but minimally alter the kinetics of the receptor.; Type 2 compounds enhance the effect size of the current elicited by 1 mM choline while reducing the rate and/or the extent of desensitization.; Type 3 compounds enhance the effect size of the current elicited by 1 mM choline. When tested at higher concentrations up to 10 μM they completely inhibit desensitization; Type 4 compounds allow for an initial desensitization of the receptor followed by a re-opening of the receptor during agonist application; details: 1 mM choline
T2 construct: expressed in transfected cells
Procedure, shortened: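 Whole-cell voltage clamp of GH4C1 cells stably expressing human wild-type α7 nAChR, with compound co-applied with 1 mM choline via rapid (<100 ms) solution switching; external pH 7.3, CsCl-based internal solution, 1.5-3 MΩ electrodes. PAM type (0-4) assigned from current kinetics when peak potentiation reached ≥200% of control choline response.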

T2 sequence (P36544 23-502): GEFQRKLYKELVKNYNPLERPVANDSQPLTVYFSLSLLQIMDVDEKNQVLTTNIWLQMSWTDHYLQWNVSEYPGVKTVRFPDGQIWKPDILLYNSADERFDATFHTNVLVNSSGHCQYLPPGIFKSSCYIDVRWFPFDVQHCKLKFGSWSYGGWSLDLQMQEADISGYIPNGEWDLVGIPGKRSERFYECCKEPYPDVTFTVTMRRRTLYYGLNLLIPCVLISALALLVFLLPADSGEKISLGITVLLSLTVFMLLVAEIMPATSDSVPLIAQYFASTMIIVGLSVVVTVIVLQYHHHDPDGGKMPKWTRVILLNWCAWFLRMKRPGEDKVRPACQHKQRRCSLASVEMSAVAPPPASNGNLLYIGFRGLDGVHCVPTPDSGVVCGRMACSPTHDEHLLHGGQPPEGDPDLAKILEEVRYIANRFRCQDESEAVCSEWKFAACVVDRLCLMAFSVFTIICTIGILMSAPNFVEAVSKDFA
T1 sequence (P36544 23-502): as above

SMILES	Emax (human alpha 7-wt nAChR)	EC50 (human alpha 7-wt nAChR)	melting point	PAM_Type PAM type [1]
Cc1cc(-c2sc(N3C[C@@H](C)O[C@@H](C)C3)nc2CNC(=O)c2ccccc2Cl)ccn1 [Compound 90, 2-chloro-N-[[2-[(2R,6S)-2,6-dimethyl-4-morpholinyl]-5-(2-methyl-4-pyridinyl)-4-thiazolyl]methyl]-benzamide]	491%	490 nM	155 °C	2
Cc1ccc(-c2sc(N3C[C@@H](C)O[C@@H](C)C3)nc2CNC(=O)c2cc(C)on2)cn1 [Compound 118, N-[[2-[(2R,6S)-2,6-dimethyl-4-morpholinyl]-5-(6-methyl-3-pyridinyl)-4-thiazolyl]methyl]-5-methyl-3-isoxazolecarboxamide]	430%	1860 nM	148 °C	0
Cc1cc(-c2sc(N3CCOC(C)(C)C3)nc2CNC(=O)CC2CC2)cc(C)n1 [Compound 156, N-[[2-(2,2-dimethyl-4-morpholinyl)-5-(2,6-dimethyl-4-pyridinyl)-4-thiazolyl]methyl]-cyclopropaneacetamide]	–	1260 nM	135 °C	0
Cc1cc(-c2sc(N3CCOC(C)(C)C3)nc2CNC(=O)c2ccc(F)cc2C)cc(C)n1 [Compound 157, N-[[2-(2,2-dimethyl-4-morpholinyl)-5-(2,6-dimethyl-4-pyridinyl)-4-thiazolyl]methyl]-4-fluoro-2-methyl-benzamide]	–	224 nM	197 °C	2
Cc1cc(-c2sc(N3C[C@@H](C)O[C@@H](C)C3)nc2CNC(=O)c2ncsc2C)cc(C)n1 [Compound 178, N-[[2-[(2R,6S)-2,6-dimethyl-4-morpholinyl]-5-(2,6-dimethyl-4-pyridinyl)-4-thiazolyl]methyl]-5-methyl-4-thiazolecarboxamide]	733%	501 nM	180 °C	0
Cc1cc(-c2sc(N3CCOC(C(F)(F)F)C3)nc2CNC(=O)CC2CC2)cc(C)n1 (stereo not drawn) [Compound 190, N-[[5-(2,6-dimethyl-4-pyridinyl)-2-[2-(trifluoromethyl)-4-morpholinyl]-4-thiazolyl]methyl]-cyclopropaneacetamide]	–	70.8 nM	168 °C	2
Cc1cc(-c2sc(N3CCO[C@@H](C(F)(F)F)C3)nc2CNC(=O)CC2CC2)cc(C)n1 [Compound 191, N-[[5-(2,6-dimethyl-4-pyridinyl)-2-[(2R)-2-(trifluoromethyl)-4-morpholinyl]-4-thiazolyl]methyl]-cyclopropaneacetamide]	995%	74.1 nM	182 °C	2
Cc1cc(-c2sc(N3CCO[C@H](C(F)(F)F)C3)nc2CNC(=O)CC2CC2)cc(C)n1 [Compound 192, N-[[5-(2,6-dimethyl-4-pyridinyl)-2-[(2S)-2-(trifluoromethyl)-4-morpholinyl]-4-thiazolyl]methyl]-cyclopropaneacetamide]	670%	234 nM	183 °C	2
Cc1cc(-c2sc(N3CCOC(C(F)(F)F)C3)nc2CNC(=O)C(C)C)cc(C)n1 (stereo not drawn) [Compound 194, N-[[5-(2,6-dimethyl-4-pyridinyl)-2-[2-(trifluoromethyl)-4-morpholinyl]-4-thiazolyl]methyl]-2-methyl-propanamide]	–	55 nM	189 °C	3
Cc1cc(-c2sc(N3CCOC(C(F)(F)F)C3)nc2CNC(=O)c2cc(C)on2)cc(C)n1 (stereo not drawn) [Compound 195, N-[[5-(2,6-dimethyl-4-pyridinyl)-2-[2-(trifluoromethyl)-4-morpholinyl]-4-thiazolyl]methyl]-5-methyl-3-isoxazolecarboxamide]	–	186 nM	170 °C	0

The next lines start with results.

Emax (human alpha 7-wt nAChR)	EC50 (human alpha 7-wt nAChR)	melting point	SMILES	PAM_Type PAM type [1]
819%	56.2 nM	178 °C	Cc1cc(-c2sc(N3CCOC(C(F)(F)F)C3)nc2CNC(=O)c2conc2C)cc(C)n1 (stereo not drawn) [Compound 196, N-[[5-(2,6-dimethyl-4-pyridinyl)-2-[2-(trifluoromethyl)-4-morpholinyl]-4-thiazolyl]methyl]-3-methyl-4-isoxazolecarboxamide]	2
–	363 nM	205 °C	Cc1nocc1C(=O)NCc1nc(N2C[C@@H](C)O[C@@H](C)C2)sc1-c1ccnc(C(F)(F)F)c1 [Compound 197, N-[[2-[(2R,6S)-2,6-dimethyl-4-morpholinyl]-5-[2-(trifluoromethyl)-4-pyridinyl]-4-thiazolyl]methyl]-3-methyl-4-isoxazolecarboxamide]	1
–	162 nM	198 °C	C[C@@H]1CN(c2nc(CNC(=O)CC3CC3)c(-c3ccnc(C(F)(F)F)c3)s2)C[C@H](C)O1 [Compound 200, N-[[2-[(2R,6S)-2,6-dimethyl-4-morpholinyl]-5-[2-(trifluoromethyl)-4-pyridinyl]-4-thiazolyl]methyl]-cyclopropaneacetamide]	1
930%	245 nM	216 °C	CC(C)C(=O)NCc1nc(N2C[C@@H](C)O[C@@H](C)C2)sc1-c1ccnc(C(F)(F)F)c1 [Compound 201, N-[[2-[(2R,6S)-2,6-dimethyl-4-morpholinyl]-5-[2-(trifluoromethyl)-4-pyridinyl]-4-thiazolyl]methyl]-2-methyl-propanamide]	1
–	3310 nM	179 °C	Cc1cc(-c2sc(N3CC4CCC(C3)O4)nc2CNC(=O)C(C)C)cc(C)n1 [Compound 207, N-[[5-(2,6-dimethyl-4-pyridinyl)-2-(8-oxa-3-azabicyclo[3.2.1]oct-3-yl)-4-thiazolyl]methyl]-2-methyl-propanamide]	1
898%	603 nM	194 °C	Cc1cc(-c2sc(N3CC4CCC(C3)O4)nc2CNC(=O)c2ccc(F)cc2C)cc(C)n1 [Compound 208, N-[[5-(2,6-dimethyl-4-pyridinyl)-2-(8-oxa-3-azabicyclo[3.2.1]oct-3-y1)-4-thiazolyl]methyl]-4-fluoro-2-methyl-benzamide]	2
705%	3160 nM	161 °C	Cc1cc(-c2sc(N3CC4CCC(C3)O4)nc2CNC(=O)CC2CC2)cc(C)n1 [Compound 209, N-[[5-(2,6-dimethyl-4-pyridinyl)-2-(8-oxa-3-azabicyclo[3.2.1]oct-3-y1)-4-thiazolyl]methyl]-cyclopropaneacetamide]	0
